These compounds were tested against TNFα trimer (Homo sapiens, UniProt P01375) (assay: TNFα FP Competitive Binding Assay). Details: FP binding assay; 20 nM TNFα trimer, 1 nM OregonGreen488 probe; read-out: TNF IC50.
Chain of TNFα trimer (P01375 77-233 limits assumed): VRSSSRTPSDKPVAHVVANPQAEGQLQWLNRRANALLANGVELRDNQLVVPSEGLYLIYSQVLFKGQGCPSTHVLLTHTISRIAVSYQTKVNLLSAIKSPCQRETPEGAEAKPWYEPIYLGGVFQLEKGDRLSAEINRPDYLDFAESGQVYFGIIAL
Description: TNFα FP Competitive Binding Assay
• 1. Assay Buffer: Prepare 1× Assay Buffer (Water with 47 mM HEPES, 47 mM NaCl, 0.9 mM EDTA, 0.0071% Triton X-100) by adding 25 mL of 1 M HEPES, 5 mL of 5 M NaCl, 1 mL of 0.5 M EDTA, and 375 μL of a 10% Triton X-100 stock to a fresh 500 mL bottle of water. • 2. Assay Mixture: Prepare fresh Assay Mixture containing 20 nM TNFα trimer (60 nM protein) and 1 nM 2′,7′-difluoro-3′,6′-dihydroxy-N-(2-(2-(2-((4-(isoquinolin-8-yl)-3-(4-(isoquinolin-8-yl)phenethoxy)benzyl)oxy)ethoxy)ethoxy)ethyl)-3-oxo-3H-spiro[isobenzofuran-1,9′-xanthene]-5-carboxamide probe in 1× Assay Buffer. Compound Plate Preparation Manual 12-Point 1:3 Dilution Plates: (384 Well Polypropylene Plates)
Top concentration of compounds, 10 mM in DMSO, dispensed in rows A-O in columns 1 and 13. Compounds are serially diluted 1:3 with DMSO in columns 2-12 or 14-24 using a 16-channel Matrix pipettor. Plates stored at −20° C.
Discovery Preps 12-Point 1:3 Dilution Plates: (384 Well Assay Plates)
Top concentration, 5 mM in DMSO, of compounds placed in rows A-O in columns 1 and 13. Compounds are serially diluted 1:3 with DMSO in columns 2-12 or 14-24. Compound solutions are dispensed into replicate assay plates at 410 nL per well. Plates stored at 4° C.
TNFα FP Competitive Binding Assay Protocol
• 1. Compound plates warmed to rt. • 2. Fresh Assay Mixture is prepared. • 3. Assay Mixture (20 μL) is dispensed each well of 384 assay plates using a Thermo Multidrop Combi or 16-channel Matrix pipettor. If Manual 12-point 1:3 Dilution Plates are to be tested, Assay Mix is dispensed into empty plates. Discovery Preps 12-point 1:3 Dilution Plates already contain 410 nL compound solution in DMSO. • 4. For Manual 12-point 1:3 Dilution Plates, 0.7 μL is manually transferred using a 16-channel Matrix pipettor to replicate assay plates containing 20 μL Assay Mixture for a final top compound concentration of 338 μM (3.4% DMSO). • 5. For Discovery Preps 12-point 1:3 Dilution Plates, 20 μL Assay Mixture added the 410 nL compound solution already in the plates yields a final top compound concentration of 100 μM (2.0% DMSO). • 6. Background subtraction controls are wells P1-P8 containing only Assay Buffer. The low % inhibition controls are wells P9-P16 containing only Assay Mix. The high % inhibition are wells P17-P24 containing only 1 nM 2′,7′-difluoro-3′,6′-dihydroxy-N-(2-(2-(2-((4-(isoquinolin-8-yl)-3-(4-(isoquinolin-8-yl)phenethoxy)benzyl)oxy)ethoxy)ethoxy)ethyl)-3-oxo-3H-spiro[isobenzofuran-1,9′-xanthene]-5-carboxamide probe in 1× Assay Buffer. • 7. Plates are incubated at rt for 18-24 h in 37° C. incubator (CO2 is off). • 8. Prior to reading the assay, the plates are placed in a dark cabinet to equilibrate at rt for one hour. • 9. Background-subtracted fluorescence polarization (mP) is measured using a PerkinElmer Envision plate reader. • 10. Raw data is entered into Assay Explorer and dose-response curves are generated using a variable slope curve. Supplies, Materials, and Reagents
In the case of `Cn1c(=O)c2ccc(-c3cnc(N4CCN5C(=O)NC[C@@H]5C4)nc3)cc2n1Cc1nc(CO)ccc1OC(F)F` [Example 84], the IC50 is reported as under 1000 nM. Compound `CC(=O)N1CCN(c2ncc(-c3ccc4c(=O)n(C)n(Cc5nc(C)ccc5OC(F)F)c4c3)cn2)C[C@H]1C` [Example 75, (R)-6-(2-(4-Acetyl-3-methylpiperazin-1-yl)pyrimidin-5-yl)-1-((3-(difluoromethoxy)-6-methylpyridin-2-yl)methyl)-2-methyl-1H-indazol-3(2H)-one] has an IC50 of under 1000 nM. `CC(=O)N1CCN(c2ncc(-c3ccc4c(=O)n(C)n(Cc5cc(C)ccc5OC(F)F)c4c3)cn2)C[C@@H]1CO` [Example 22.11] was tested, and the IC50 was under 1000 nM. Compound `C[C@@H]1CN(c2ncc(-c3ccc4c(=O)n(C)n(Cc5ccccc5OC(F)F)c4c3)cn2)CCN1C(=O)C(O)CN` (stereo partly drawn) [Example 14.8] has an IC50 of under 1000 nM. For `Cn1c(=O)c2ccc(-c3cnc(N4CCC(C(=O)O)CC4)cn3)cc2n1Cc1ccccc1OC(F)F` [Example 10.3], the IC50 was over 10000 nM. Work on `CC(=O)N1CCN(c2ncc(-c3ccc4c(=O)n(C)n(Cc5cc(C)ccc5SC(F)F)c4n3)cn2)C[C@H]1C` [Example 18.1] yielded an IC50 of under 1000 nM. `CC(=O)N1CCN(c2ncc(-c3ccc4c(=O)n(C)n(Cc5nc(CC#N)ccc5C(F)(F)F)c4c3)cn2)C[C@H]1C` [Example 61, (R)-2-(6-((6-(2-(4-Acetyl-3-methylpiperazin-1-yl)pyrimidin-5-yl)-2-methyl-3-oxo-2,3-dihydro-1H-indazol-1-yl)methyl)-5-(trifluoromethyl)pyridin-2-yl)acetonitrile] showed an IC50 of under 1000 nM. `CC(=O)N1CCN(c2ncc(-c3ccc4c(=O)n(C)n(Cc5c[nH]cc5C(F)(F)F)c4c3)cn2)C[C@H]1C` [Example 27.5] gave an IC50 of under 1000 nM. `CC(=O)N1CCN(c2ncc(-c3ccc4c(=O)n(C)n(Cc5cc(C)ccc5OC(F)F)c4c3)c(C)n2)[C@H](C)C1` [Example 22.14] was tested, and the IC50 was under 1000 nM. `CC(=O)N1CCN(c2ncc(-c3ccc4c(=O)n(C)n(Cc5c(CO)cccc5OC(F)F)c4c3)cn2)C[C@H]1C` [Example 48, (R)-6-(2-(4-Acetyl-3-methylpiperazin-1-yl)pyrimidin-5-yl)-1-(2-(difluoromethoxy)-6-(hydroxymethyl)benzyl)-2-methyl-1H-indazol-3(2H)-one] showed an IC50 of under 1000 nM. For `CN(C)C(=O)OCc1ccc(OC(F)F)c(Cn2c3cc(-c4cnc(N5CCN6C(=O)NC[C@@H]6C5)nc4)ccc3c(=O)n2C)c1` [Example 67, (R)-4-(Difluoromethoxy)-3-((2-methyl-3-oxo-6-(2-(3-oxohexahydroimidazo[1,5-a]pyrazin-7(1H)-yl)pyrimidin-5-yl)-2,3-dihydro-1H-indazol-1-yl)methyl)benzyldimethylcarbamate], the IC50 was under 1000 nM. For `O=c1[nH]n(Cc2cc(Cl)ccc2Cl)c2cc(-c3cnc(N4CCOCC4)nc3)ccc12` [Example 9.1], the IC50 was over 10000 nM. `COC(=O)N1CCN(c2ncc(-c3ccc4c(=O)n(C)n(Cc5cc(C)ccc5OC(F)F)c4c3)cn2)C[C@H]1C` [Example 23, (R)-Methyl 4-(5-(1-(2-(difluoromethoxy)-5-methylbenzyl)-2-methyl-3-oxo-2,3-dihydro-1H-indazol-6-yl)pyrimidin-2-yl)-2-methylpiperazine-1-carboxylate] was tested, and the IC50 was under 1000 nM. `CC(=O)N1CCN(c2ncc(-c3ccc4c(=O)n(C)n(Cc5cn(CCO)cc5C(F)(F)F)c4c3)cn2)C[C@H]1C` [Example 64, (R)-6-(2-(4-Acetyl-3-methylpiperazin-1-yl)pyrimidin-5-yl)-1-((1-(2-hydroxyethyl)-4-(trifluoromethyl)-1H-pyrrol-3-yl)methyl)-2-methyl-1H-indazol-3(2H)-one] was tested, and the IC50 was under 1000 nM. Work on `Cc1ccc(OC(F)F)c(Cn2c3cc(-c4ccc(C(C)(C)N)nc4)c(F)cc3c(=O)n2C)c1` [Example 89, 6-(6-(2-Aminopropan-2-yl)pyridin-3-yl)-1-(2-(difluoromethoxy)-5-methylbenzyl)-5-fluoro-2-methyl-1H-indazol-3(2H)-one 2,2,2-trifluoroacetate] yielded an IC50 of under 1000 nM. Work on `Cn1c(=O)c2ccc(-c3nsc(N4CCOCC4)n3)cc2n1Cc1ccccc1OC(F)F` [Example 10.5] yielded an IC50 of over 10000 nM. With `Cn1c(=O)c2ccc(-c3cnc(N4CCN5C(=O)OC[C@H]5C4)nc3)cc2n1Cc1cc(CC#N)ccc1OC(F)F` [Example 79, (R)-2-(4-(Difluoromethoxy)-3-((2-methyl-3-oxo-6-(2-(3-oxotetrahydro-1H-oxazolo[3,4-a]pyrazin-7(3H)-yl)pyrimidin-5-yl)-2,3-dihydro-1H-indazol-1-yl)methyl)phenyl)acetonitrile] the IC50 was under 1000 nM. Compound `Cn1c(=O)c2ccc(-c3cnc(N4CCOCC4)nc3)cc2n1Cc1cccc(OC(F)F)c1` [Example 1.2] has an IC50 of 1000 to 10000 nM. `C[C@@H]1CN(c2ncc(-c3ccc4c(=O)n(C)n(Cc5ccccc5OC(F)F)c4c3)cn2)CCN1C(=O)[C@H](O)CC(=O)O` [Example 50, (R)-4-((R)-4-(5-(1-(2-(Difluoromethoxy)benzyl)-2-methyl-3-oxo-2,3-dihydro-1H-indazol-6-yl)pyrimidin-2-yl)-2-methylpiperazin-1-yl)-3-hydroxy-4-oxobutanoic acid] was tested, and the IC50 was under 1000 nM. `CCn1c(=O)c2ccc(-c3cnc(N4CCOCC4)nc3)cc2n1Cc1ccccc1OC(F)F` [Example 10, 1-(2-(Difluoromethoxy)benzyl)-2-ethyl-6-(2-morpholinopyrimidin-5-yl)-1H-indazol-3(2H)-one] showed an IC50 of 1000 to 10000 nM. Work on `Cn1cc(C(F)(F)F)c(Cn2c3cc(-c4cnc(N5CCN6C(=O)NC[C@H]6C5)nc4)ccc3c(=O)n2C)n1` [Example 72, (S)-7-(5-(2-methyl-1-((1-methyl-4-(trifluoromethyl)-1H-pyrazol-3-yl)methyl)-3-oxo-2,3-dihydro-1H-indazol-6-yl)pyrimidin-2-yl)hexahydroimidazo[1,5-a]pyrazin-3(2H)-one] yielded an IC50 of 1000 to 10000 nM. `Cn1c(=O)c2ccc(-c3cnc(NC4CCOC4)nc3)cc2n1Cc1ccccc1OC(F)F` (stereo not drawn) [Example 2.20] gave an IC50 of 1000 to 10000 nM. `Cn1c(=O)c2ccc(-c3cnc(N4CCOCC4)nc3)cc2n1Cc1cc(CO)ccc1OC(F)F` [Example 9, 1-(2-(Difluoromethoxy)-5-(hydroxymethyl)benzyl)-2-methyl-6-(2-morpholinopyrimidin-5-yl)-1H-indazol-3(2H)-one] showed an IC50 of under 1000 nM. `CC(=O)N1CCN(c2ncc(-c3ccc4c(=O)n(Cc5ccncc5)n(Cc5ccccc5Cl)c4c3)cn2)C[C@H]1C` [Example 27.7] gave an IC50 of 1000 to 10000 nM. Work on `COc1c(-c2cnc(N3CCN(C(=O)CO)[C@H](C)C3)nc2)ccc2c(=O)n(C)n(Cc3ccccc3OC(F)F)c12` [Example 70, (R)-1-(2-(Difluoromethoxy)benzyl)-6-(2-(4-(2-hydroxyacetyl)-3-methylpiperazin-1-yl)pyrimidin-5-yl)-7-methoxy-2-methyl-1H-indazol-3(2H)-one] yielded an IC50 of under 1000 nM. `C[C@@H]1CN(c2ncc(-c3ccc4c(=O)n(C)n(Cc5ccccc5OC(F)F)c4c3)cn2)CCN1C(=O)CO` [Example 10.6, (R)-1-(2-(difluoromethoxy)benzyl)-6-(2-(4-(2-hydroxyacetyl)-3-methylpiperazin-1-yl)pyrimidin-5-yl)-2-methyl-1H-indazol-3(2H)-one] was tested, and the IC50 was under 1000 nM. Compound `CC(=O)N1CCN(c2ncc(-c3ccc4c(=O)n(C)n(Cc5cc(Cc6cn[nH]c6)ccc5OC(F)F)c4c3)cn2)C[C@H]1C` [Example 110, (R)-1-(5-((1H-Pyrazol-4-yl)methyl)-2-(difluoromethoxy)benzyl)-6-(2-(4-acetyl-3-methylpiperazin-1-yl)pyrimidin-5-yl)-2-methyl-1H-indazol-3(2H)-one] has an IC50 of under 1000 nM.

From US10160748B2 (AbbVie Inc., priority 2015, dated 2018)
